Calls of active or inactive are those of the source. The rule behind the calls is not given here.
System: Radical scavenging activity
Test: Antioxidant activity assessed as DPPH radical scavenging activity
Assay type: functional

Row | Compound | Activity
1 | O=C(O)C[C@@H]1C(=O)O[C@H]2[C@@H]3OC(=O)c4cc(O)c(O)c(O)c4-c4c(cc(O)c(O)c4O)C(=O)OC[C@H]2O[C@@H](OC(=O)c2cc(O)c(O)c(O)c2)[C@@H]3OC(=O)c2cc(O)c(O)c3c2[C@H]1[C@@](O)(C(=O)O)O3 | Active
2 | O=C(O)C[C@@H]1C(=O)O[C@H]2[C@@H]3OC(=O)c4cc(O)c(O)c(O)c4-c4c(cc(O)c(O)c4O)C(=O)OC[C@H]2O[C@@H](OC(=O)c2cc(O)c(O)c(O)c2)[C@@H]3OC(=O)c2cc(O)c(O)c3c2[C@H]1[C@H](O)C(=O)O3 | Active

— ChEMBL document CHEMBL1156390, “Phyllanemblinins A-F, new ellagitannins from Phyllanthus emblica” (J Nat Prod, 2001)
